Measured values reported in paper PMC4721062, “Oxadiazole-2-oxides may have other functional targets, in addition to SjTGR, through which they cause mortality in Schistosoma japonicum” (Parasites & Vectors, 2016).
Where two headings read alike, the source gives them in different places.

Legend:
S. mansoni = settings: compared with 10 μM, 72 h data; cited from earlier work
[1] = Cytotoxicity assay on Hela cells (MTT); format: cell-based; settings: human
Description: Cytotoxicity assays were performed using Hela cells. Cells in the exponential growth phase were collected by centrifugation and a concentration of 4–5 × 10^4/mL was created. 100 μL of the cell suspension was added to each well of a 96-well plate and cultured overnight at 37 °C in a humid atmosphere with 5 % CO2. Oxadiazole-2-oxides (at 10, 20, 40, 80 and 160 μM) were added. Each concentration was assayed in triplicate, and control wells (no cells and no drugs) were assayed at the same time. The “no cell” control wells only contained RPMI 1640 medium, MTT, DMSO, and oxadiazole-2-oxides. The “no drug” control wells contained the Hela cells, RPMI 1640 medium, MTT and DMSO. The cells were cultured for 48 h at 37 °C in a humid atmosphere with 5 % CO2. Then, 20 μL of 5 mg/mL MTT was added to each well and the culture conditions were maintained for 4 h. After this point, the medium was removed and 150 μL DMSO was added into each well to dissolve any crystallisation. The value of absorbance at 570 nm of each well was measured (at 570 nm) with a microplate reader to assess the toxic effect of the oxadiazole-2-oxides on the vertebrate cells.

[2] = test system: juvenile S. japonicum in mice; test: Treatment of infected mice at juvenile worm stage; format: in vivo, Schistosoma japonicum (ICR mice); settings: 10 mg/kg i.p. daily for 5 days from day 7 post-infection; for Number of eggs per gram of liver (Mean ± SD) / Number of worms (Mean ± SD): sacrificed day 42; for Egg reduction rate / Worm reduction rate: versus control, 10 mg/kg
Description: (§1) The abdominal skin of each mouse (ICR, female, 22–24 g) was exposed to 20 S. japonica cercariae (as described above). The mice were intraperitoneally injected with 10 mg/kg oxadiazole-2-oxides daily for 5 days, beginning either 7 or 35 days post-infection. Control mice were treated with 10 mg/kg of the carrier medium. All mice were sacrificed 42 days post-infection. The worm burden of each mouse was confirmed by counting the number of worms observed from a portal vein perfusion. The mouse livers were digested overnight with 5 % potassium hydroxyl solution at 37 °C and the eggs in the liver tissue were counted under an inverted phase contrast microscope. The worm and egg reduction rates were calculated using the following formulas: Wormreductionrate%=meannumberofadultwormspermouseincontrolgroup−meannumberofadultwormspermouseinexperimentalgroup/meannumberofadultwormspermouseincontrolgroup. Eggreductionrate%=meannumberofeggspermouseincontrolgroup−meannumberofeggspermouseinexperimentalgroup/meannumberofeggspermouseincontrolgroup.

adult S. japonica = test: Activity against adult S. japonica in vitro with and without NO scavenger carboxy-PTIO; format: cell-based, Schistosoma japonicum; set-up: dose or concentration left out as unconfirmed; settings: adult worms in vitro
Description: To assess the importance of NO production, the potassium salt of carboxy-PTIO, a NO scavenger, was dissolved in water and 100 mM was incubated with freshly perfused adult S. japonica in the presence or absence of […] oxadiazole-2-oxides. The worms’ mobility, tegumental alterations and parasite survival were monitored using an inverted microscope. The experiment was done in triplicate.
Fig. 4 Activity of oxadiazole-2-oxides against adult S. japonica in vitro, with and without carboxy-PTIO. Carboxy-PTIO was incubated with freshly perfused adult S. japonica at 100 mM in the presence and absence of […] oxadiazole-2-oxides. The worms’ mobility, tegumental alterations and survival rates were monitored under an inverted microscope. The experiment was done in triplicate. The percentage of adult worms that survived are shown (mean ± SD; n = 3)

adult S. japonicum = test: microbe, parasite or virus in culture; format: cell-based; settings: for killing at 25 µM / killing at 50 µM / killing at 100 µM / Killing activity 24hr / Killing activity 48hr / Killing activity 72hr: adult worms; for Killing activity 24hr / Killing activity 48hr / Killing activity 72hr: 10 μM
In short: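 Adult worm pairs recovered by portal perfusion from ICR mice 35 days after infection with 50 cercariae, cultured in RPMI 1640 (pH 7.5, 20 mM HEPES, 10% FBS) at 37 °C, 5% CO2. Oxadiazole-2-oxides at 10, 25, 50, 100 μM; motility and survival scored microscopically at 24, 48, 72 h, death being no movement over 2 min; three independent experiments averaged.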

[3] = test system: adult S. japonicum in mice; test: Treatment of infected mice at adult worm stage; format: in vivo, Schistosoma japonicum (ICR mice); settings: for Number of eggs per gram of liver (Mean ± SD) / Number of worms (Mean ± SD): sacrificed day 42
Description: as §1

[4] = Schistosoma japonicum, 24 h, read-out: Mortality of adult worms
[5] = Schistosoma japonicum, 72 h, read-out: Mortality of adult worms
[6] = Schistosoma japonicum, 24 h, read-out: Killing activity 24hr
[7] = Schistosoma japonicum, 48 h, read-out: Killing activity 48hr
[8] = Schistosoma japonicum, 72 h, read-out: Killing activity 72hr
[9] = mice, 10 mg/kg i.p. daily for 5 days from day 35 post-infection
[10] = mice, 10 mg/kg i.p. daily for 5 days from day 35 post-infection, versus control, 10 mg/kg

SMILES | Mortality in adult worms of S. mansoni (S. mansoni) | viability at 72 h, 80 µM [1] | Number of eggs per gram of liver (Mean ± SD) [2] | Number of worms (Mean ± SD) [2] | Egg reduction rate [2] | Worm reduction rate [2] | Killing activity with versus without carboxy-PTIO (adult S. japonica) | mortality at 50 µM (adult S. japonicum; [4]) | killing at 25 µM (adult S. japonicum; [6]) | killing at 25 µM (adult S. japonicum; [7]) | killing at 25 µM (adult S. japonicum; [8]) | killing at 50 µM (adult S. japonicum; [6]) | killing at 50 µM (adult S. japonicum; [7]) | killing at 50 µM (adult S. japonicum; [8]) | killing at 100 µM (adult S. japonicum; [6]) | killing at 100 µM (adult S. japonicum; [7]) | killing at 100 µM (adult S. japonicum; [8]) | Killing activity 24hr (adult S. japonicum; 24 h) | Killing activity 48hr (adult S. japonicum; 48 h) | Killing activity 72hr (adult S. japonicum; 72 h) | other results
N#Cc1c(-c2ccc(Br)cc2)no[n+]1[O-] [Compound 7c] | 100.0% | 66% | 3,859.4 ± 3,749.4 (P > 0.05^**) | 1.4 ± 0.8 (P > 0.05^**) | 52.0 ( P > 0.05^*) % | 87.1 (P < 0.01^*) % | no differences in the killing activities | 100% | 77.8% | 100% | 100% | 100% | 100% | 100% | 100% | 100% | 100% | n.e. | 70.0%D | 70.0%D | mortality at 25 µM (adult S. japonicum; [4]): > 75%; mortality at 10 µM (adult S. japonicum; [5]): 70 ± 7.1%; Number of eggs per gram of liver (Mean ± SD) [3, 9]: 7213.0 ± 2658.0 (P < 0.05^**); Number of worms (Mean ± SD) [3, 9]: 12.0 ± 3.9 (P < 0.05^**); Egg reduction rate ([3]; mice, 10 mg/kg i.p. daily for 5 days from day 35 post-infection, versus control): 10.2 (P > 0.05^*) %
N#Cc1c(-c2ccc(O)cc2)no[n+]1[O-] [Compound 8] | 100.0% |  |  |  |  |  |  |  | 50% | 66.7% | 100% | 77.8% | 88.9% | 100% | 100% | 100% | 100% | n.e. | 57.1%D | 71.4%D | mortality at 10 µM (adult S. japonicum; [5]): 71.4 ± 0.9%
N#Cc1c(-c2ccc(OC/C=C/CBr)cc2)no[n+]1[O-] [Compound 16] |  | 89% | 4,054.5 ± 1,322.1 (P > 0.05^**) | 1.0 ± 0.5 (P > 0.05^**) | 49.5 (P < 0.01^*) % | 90.8 (P < 0.01^*) % | no differences in the killing activities | 100% | 50% | 75% | 100% | 100% | 100% | 100% | 100% | 100% | 100% | n.e. | 50.0%D | 80.0%D | Reduction in the female worms ([3]; mice treated at adult worm stage (data not shown)): 44.7%; Number of eggs per gram of liver (Mean ± SD) [3, 9]: 6424.1 ± 1193.4 (P < 0.05^**); Number of worms (Mean ± SD) [3, 9]: 3.7 ± 1.4 (P > 0.05^**); Egg reduction rate [3, 10]: 20.0 (P > 0.05^*) %; Worm reduction rate [3, 10]: 69.4 (P < 0.01^*) %
